Source: PubChem BioAssay (NCI)
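Interpolation was linear, between the two tested concentrations surrounding the appropriate level; five concentrations were tested over 48 hours in 96-well plates. TGI is the concentration that stops growth completely.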 *1 amine or outer side, *2 acyl side, *3 side chain or, on linkers, in order; H or OH if unused. Where a SMILES comes first, the peptide text is derived from it. [ ]: non-standard residue; d: D form. The star is where a group is joined. γGlu = O=C(O)[CH](CCC(=O)[*:2])N[*:1]; Hiv = CC(C)[C@H](O)C(=O)O; NHOH = ON*

Columns and labels:
Test in all cases: DTP human tumour cell line panel, 48 h
786-0 renal = test system: 786-0 renal
ACHN renal = test system: ACHN renal
CAKI-1 renal = test system: CAKI-1 renal
COLO 205 colon = test system: COLO 205 colon
HCC-2998 colon = test system: HCC-2998 colon
HCT-116 colon = test system: HCT-116 colon
HOP-62 NSCLC = test system: HOP-62 NSCLC
HOP-92 NSCLC = test system: HOP-92 NSCLC
HS 578T breast = test system: HS 578T breast
HT29 colon = test system: HT29 colon
IGROV1 ovarian = test system: IGROV1 ovarian
MDA-N = test system: MDA-N
NCI-H23 lung = test system: NCI-H23 lung
NCI/ADR-RES ovarian = test system: NCI/ADR-RES ovarian
PC-3 prostate = test system: PC-3 prostate
RXF 393 renal = test system: RXF 393 renal
SK-OV-3 ovarian = test system: SK-OV-3 ovarian
SN12C renal = test system: SN12C renal
NCI-H460 lung = test system: NCI-H460 lung
CCRF-CEM leukemia = test system: CCRF-CEM leukemia

Compound | TGI (786-0 renal) [µM] | TGI (ACHN renal) [µM] | TGI (CAKI-1 renal) [µM] | TGI (COLO 205 colon) [µM] | TGI (HCC-2998 colon) [µM] | TGI (HCT-116 colon) [µM] | TGI (HOP-62 NSCLC) [µM] | TGI (HOP-92 NSCLC) [µM] | TGI (HS 578T breast) [µM] | TGI (HT29 colon) [µM] | TGI (IGROV1 ovarian) [µM] | TGI (MDA-N) [µM] | TGI (NCI-H23 lung) [µM] | TGI (NCI/ADR-RES ovarian) [µM] | TGI (PC-3 prostate) [µM] | TGI (RXF 393 renal) [µM] | TGI (SK-OV-3 ovarian) [µM] | TGI (SN12C renal) [µM] | TGI (NCI-H460 lung) [µM] | TGI (CCRF-CEM leukemia) [µM]
N#CC1=C(N)OC(c2cccc([N+](=O)[O-])c2)C1(C#N)C#N (stereo unspecified) | 28.1 | 33.2 | 26.6 | 30.7 | 35.2 | 28.5 | 57 | 32.3 | > 100 | 37.2 | 35.4 | 62.6 | 39.3 | > 100 | 51.4 | 43.3 | > 100 | > 100 | – | –
O=C(CSc1nc2ccc(I)cc2c(=O)n1Cc1ccccc1)NN1C(=O)c2ccccc2C1=O | > 100 | 68.9 | 33.5 | > 100 | > 100 | > 100 | 24 | 35.9 | 43.1 | > 100 | 64.2 | > 100 | 44.7 | 42.8 | 19.6 | 25.5 | 29.1 | 57.3 | > 100 | –
NCCNCCCNC(=O)c1cc(-c2ccccc2)nc2ccccc12 | 61.8 | > 100 | > 100 | 30.9 | 34.4 | > 100 | > 100 | 55.4 | > 100 | > 100 | > 100 | 66.8 | > 100 | > 100 | > 100 | > 100 | > 100 | > 100 | > 100 | 51.2
CC(C)[C@@H]1OC(=O)[C@@H](C)NC(=O)[C@@H]2CCCN2C1=O (cyclo([Hiv]-Pro-[dA])) | > 100 | > 100 | > 100 | > 100 | > 100 | > 100 | > 100 | > 100 | > 100 | > 100 | > 100 | > 100 | > 100 | > 100 | > 100 | > 100 | > 100 | > 100 | > 100 | > 100
CCOC(=O)CNC(=O)C(CCC(=O)NO)NC(=O)CCC(N)C(=O)O (stereo unspecified) (γGlu-Glu(NHOH)-Gly-OEt; configuration not given here) | > 100 | > 100 | > 100 | > 100 | > 100 | > 100 | > 100 | > 100 | > 100 | > 100 | > 100 | > 100 | > 100 | > 100 | > 100 | > 100 | > 100 | > 100 | > 100 | > 100
COCCOC1=C(Cl)C(=O)c2c(O)ccc(O)c2C1=O | 3.23 | 2.96 | 1.11 | 2.34 | 15.6 | 2.6 | 9.94 | 2.2 | 8.34 | 7.7 | 6.27 | 3.03 | 9.54 | 8.5 | 13 | 1.7 | 30.7 | 4.04 | 17.2 | –
